What was measured:
[1] = target: T1, TALK-2 L264A mutant channels (Homo sapiens, UniProt Q96T54, L264A)
T1 sequence (Q96T54 1-332 L264A): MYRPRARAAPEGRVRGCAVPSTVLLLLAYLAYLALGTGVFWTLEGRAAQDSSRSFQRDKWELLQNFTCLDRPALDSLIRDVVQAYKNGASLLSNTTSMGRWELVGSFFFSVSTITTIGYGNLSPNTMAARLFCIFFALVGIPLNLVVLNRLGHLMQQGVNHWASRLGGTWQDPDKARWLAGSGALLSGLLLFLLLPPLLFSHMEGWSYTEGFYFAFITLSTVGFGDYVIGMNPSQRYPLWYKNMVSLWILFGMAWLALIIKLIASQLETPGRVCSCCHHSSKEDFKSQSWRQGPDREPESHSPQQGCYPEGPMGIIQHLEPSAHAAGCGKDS
Protocol: Oocytes were surgically removed from anesthetized adult females, treated with type II collagenase (Sigma-Aldrich/Merck, Germany) and manually defolliculated. 50 nl of a solution containing the K^+ channel specific cRNA was injected into Dumont stage V - VI oocytes and subsequently incubated at 17 °C in a solution containing (mM): 54 NaCl, 30 KCl, 2.4 NaHCO3, 0.82 MgSO4 x 7 H2O, 0.41 CaCl2, 0.33 Ca(NO3)2 x 4 H2O and 7.5 TRIS (pH 7.4 adjusted with NaOH/HCl) for 1–7 days before use. Electrophysiological recordings: Excised patch measurements in inside-out configuration under voltage-clamp conditions were performed at room temperature (22 – 24 °C). […] Currents were recorded with an EPC10 amplifier (HEKA electronics, Germany) and sampled at 10 kHz or higher and filtered with 3 kHz (-3 dB) or higher as appropriate for sampling rate.
Recorded currents were analyzed from stable membrane patches at a voltage defined in the respective figure legend or with a voltage protocol as indicated in the respective figure. The fold activation (fold change in (tail) current amplitude) of a ligand (drug or bioactive lipid) was calculated from Eq. 1:1 Fold activationFA=Iactivated/Ibasal where Iactivated represents the stable current level in the presence of a given concentration of a respective ligand and Ibasal the measured current before ligand application. […]

[2] = target: T1, TALK-2 L264A mutant channels; assay: Pore blocker inhibition (dose-response, residual currents) in inside-out patches at +40 mV; type: cell-based; parameters: expressed in transfected cells; host or cells: Xenopus laevis oocytes (cRNA injection), excised inside-out patches
Protocol: Data shown are the mean ± s.e.m and the number (n) of independent experiments and repeats of representative measurements with similar results is indicated in the figure.
Electrophysiological recordings: Excised patch measurements in inside-out configuration under voltage-clamp conditions were performed at room temperature (22 – 24 °C). Patch pipettes were made from thick-walled borosilicate glass GB 200TF-8P (Science Products, Germany), had resistances of 0.2–0.5 MΩ (tip diameter of 10 - 25 µm) and filled with a pipette solution (in mM): 120 KCl, 10 HEPES and 3.6 CaCl2 (pH 7.0 - 8.5 adjusted with KOH/HCl) or 120 KCl, 10 AMPSO and 3.6 CaCl2 (pH 9.0 - 10.5 adjusted with KOH/HCl). Intracellular bath solutions and compounds were applied to the cytoplasmic side of excised patches for the various K^+ channels via a gravity flow multi-barrel pipette system. Intracellular solution had the following composition (in mM): 120 KCl, 10 HEPES, 2 EGTA and 1 Pyrophosphate (pH adjusted with KOH/HCl). In other intracellular bath solutions, K^+ was replaced by Rb^+ (pH 7.4 adjusted with RbOH/HCl). Currents were recorded with an EPC10 amplifier (HEKA electronics, Germany) and sampled at 10 kHz or higher and filtered with 3 kHz (-3 dB) or higher as appropriate for sampling rate.
Data analysis and statistics were done using Fitmaster (HEKA electronics, version: v2x73.5, Germany), Microsoft Excel 2021 (Microsoft Corporation, USA), and Igor Pro 9 software (WaveMetrics Inc., USA). Recorded currents were analyzed from stable membrane patches at a voltage defined in the respective figure legend or with a voltage protocol as indicated in the respective figure. […] Percentage inhibition or residual currents upon blocker application for a ligand (drug or bioactive lipid) was calculated from stable currents of excised membrane patches using the following Eqs. 2 and 3:2 %inhibition=1−Iinhibited/Ibasal*100 3 Residual current=100−%inhibition where Iinhibited refers to the stable current level recorded in the presence of a given concentration of a drug or bioactive lipid and Ibasal to the measured current before ligand application.

SMILES | Fold activation 1 mM 2-APB ([1]; 1 mM) [fold] | further current increase by 2-APB ([1]; 1.0 mM 2-APB) | IC50 [2] [µM] | Residual currents with 1 mM TPenA ([2]; TALK-2 L264A, +40 mV) [%] | Normalized currents ([2]; TALK-2 L264A, 1 µM TPenA) | Normalized currents ([2]; TALK-2 L264A, 10 µM TPenA) | Normalized currents ([2]; TALK-2 L264A, 100 µM TPenA) | Normalized currents ([2]; TALK-2 L264A, 1000 µM TPenA) | Normalized currents ([2]; TALK-2 L264A, 4000 µM TPenA)
NCCOB(c1ccccc1)c1ccccc1 [2-APB, 2-aminoethoxydiphenyl borate] | 2.78 | only a minor further current increase | – | – | – | – | – | – | –
CCCCC[N+](CCCCC)(CCCCC)CCCCC [TPenA, Tetra-pentyl-ammonium chloride] | – | – | 459 ± 58 | 29.31 | 0.99 | 0.97 | 0.77 | 0.32 | 0.17

Source: article PMC11364775, “Ion occupancy of the selectivity filter controls opening of a cytoplasmic gate in the K2P channel TALK-2” (Nature Communications, 2024)
